Source: PubChem BioAssay AID1919017 (Molecular Pharmacology Branch, DTP, NCI, 2023)

Tested on: SW1271 complex spheroids with HUVEC/MSC, growth, % test/control
Assay: Anticancer human tumor SW1271 cell line growth inhibition [AhR];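 also: spheroids exposed to agents for 7 days before readout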
Settings: for IC50: curve of first compound; for viability, T/C: stronger effect = lower value
Excerpt: Multicellular complex tumor spheroid response to aryl hydrocarbon receptor antagonists in combination with a variety of drugs and investigational agents in selected tumor cell lines
The current study was undertaken to assess response to aryl hydrocarbon receptor antagonists in combination with standard-of-care drugs and investigational agents in solid tumor complex spheroid models. Complex spheroids include a stromal component modeled by human endothelial cells (HUVEC) and fibroblasts modeled by human mesenchymal stem cells (MSCs). The concentration ranges selected for each drug and investigational agent were based upon clinically achievable concentrations if the clinical Cmax of the agent was known.
Compounds. The drugs and investigational agents: BAY 2416964 (NSC825713), GNF351 (NSC835774), CH-223191 (NSC835775), CPI-455 (NSC825282), aza-TdCyd (NSC777586), decitabine (NSC127716), belinostat (NSC758774), entinostat (NSC756642), pevonedistat (NSC761192), tazemetostat (NSC777109), talazoparib (NSC765396), olaparib (NSC753686), selinexor (NSC780203), nedisertib (M3814, NSC802822), bortezomib (NSC756655), venetoclax (NSC766270), doxorubicin (NSC123127), elimusertib (BAY189344, NSC800525), ceralasertib (AZD6738, NSC777638), TAK-243 (NSC785004), alisertib (NSC759677), etoposide (NSC141540), topotecan (NSC609699), eribulin (NSC707389), gemcitabine (NSC613327), carboplatin (NSC241240), cisplatin (NSC119875), and SN-38 (NSC673596) were obtained from the National Cancer Institute (NCI) Developmental Therapeutics Program Chemical Repository (32). The FDA-approved anticancer drug set is available from the Developmental Therapeutics Program at https://dtp.cancer.gov/organization/dscb/obtaining/available plates.htm. […] The stock solutions were prepared in dimethyl sulfoxide (DMSO, Sigma-Aldrich, St. Louis, MO, cat. D2650), except for the platinum compounds which were prepared in saline (Quality Biological, Gaithersburg, MD, cat. 114-055-101), at 800-fold the tested concentration and stored at -70 degrees C prior to their use. All drugs and investigational agents were tested over a range starting from a high concentration at or near the clinical Cmax and decreasing in half-log increments. If the clinical Cmax for an agent had not been determined, the highest concentration tested was 10 microM (Table 1).
Cell Culture. All cells were maintained in an incubator at 37 degrees C and 5% CO2 with 95% humidity. The PDC lines were cultured according to standard operating procedures established by the NCI PDMR (https://pdmr.cancer.gov). Briefly, all PDCs were thawed and cultured in Matrigel-coated flasks prepared with a working solution of 1X Ham's F-12 nutrient mix, without supplementation (Invitrogen, Waltham, MA, cat. 11765054), 100 U/mL penicillin-streptomycin (Invitrogen, cat. 15140122), and 2.5% Matrigel (Corning Inc., Corning, NY, cat. 354248) for the first three passages. All PDCs were cultured in complete DMEM/F-12 media containing advanced DMEM/F-12 (Invitrogen, cat. 12634028), 4.9% defined fetal bovine serum, heat inactivated (HyClone Laboratories Inc., Logan, UT, cat. SH30070.03HI), 389 ng/mL hydrocortisone (Sigma-Aldrich, cat. H4001), 9.7 ng/mL human EGF recombinant protein (Invitrogen, cat. PHG0313), 23.4 microg/mL adenine (Sigma-Aldrich, cat. A2786), 97.3 U/mL penicillin-streptomycin (Invitrogen, cat. 15140122), 1.9 mM L-glutamine (Invitrogen, cat. 25030081), and 9.7 microM Y-27632 dihydrochloride (Tocris Bioscience, Bristol, United Kingdom, cat. 1254). The PDCs were cultured in complete DMEM/F12 media without 10 microM Y-27632 dihydrochloride for at least two passages prior to the screen. The established cell lines NCI-H1341 and […] were cultured in DMEM/F-12, HEPES (Invitrogen, cat. 11330032), 5% defined fetal bovine serum (HyClone Laboratories Inc., cat. SH30070.03), ITS premix universal culture supplement [insulin (5 microg/mL), transferrin (5 microg/mL), and selenious acid (5 ng/mL)] […]

CCN(c1cc(-c2ccc(CN3CCOCC3)cc2)cc(C(=O)NCc2c(C)cc(C)[nH]c2=O)c1C)C1CCOCC1 + Cc1cncc(-c2nc(NCCc3c[nH]c4ccccc34)c3ncn(C(C)C)c3n2)c1
IC50 (second compound 0.1 µM): > 3000 nM | IC50 (second compound 0.316 µM): > 3000 nM | IC50 (second compound 1 µM): > 3000 nM | IC50 (second compound 3.16 µM): > 3000 nM | IC50 (second compound 10 µM): < 9.49 nM | viability, T/C (second compound 0.1 µM, first compound 0.00949 µM): 81% | viability, T/C (second compound 0.1 µM, first compound 0.03 µM): 100% | viability, T/C (second compound 0.1 µM, first compound 0.0949 µM): 108% | viability, T/C (second compound 0.1 µM, first compound 0.3 µM): 97.5% | viability, T/C (second compound 0.1 µM, first compound 0.949 µM): 99.7% | viability, T/C (second compound 0.1 µM, first compound 3 µM): 118% | viability, T/C (second compound 0.316 µM, first compound 0.00949 µM): 99% | viability, T/C (second compound 0.316 µM, first compound 0.03 µM): 105% | viability, T/C (second compound 0.316 µM, first compound 0.0949 µM): 103% | viability, T/C (second compound 0.316 µM, first compound 0.3 µM): 124% | viability, T/C (second compound 0.316 µM, first compound 0.949 µM): 106% | viability, T/C (second compound 0.316 µM, first compound 3 µM): 115% | viability, T/C (second compound 1 µM, first compound 0.00949 µM): 94.6% | viability, T/C (second compound 1 µM, first compound 0.03 µM): 112% | viability, T/C (second compound 1 µM, first compound 0.0949 µM): 118% | viability, T/C (second compound 1 µM, first compound 0.3 µM): 94.1% | viability, T/C (second compound 1 µM, first compound 0.949 µM): 106% | viability, T/C (second compound 1 µM, first compound 3 µM): 110% | viability, T/C (second compound 3.16 µM, first compound 0.00949 µM): 101% | viability, T/C (second compound 3.16 µM, first compound 0.03 µM): 109% | viability, T/C (second compound 3.16 µM, first compound 0.0949 µM): 97% | viability, T/C (second compound 3.16 µM, first compound 0.3 µM): 87.9% | viability, T/C (second compound 3.16 µM, first compound 0.949 µM): 96% | viability, T/C (second compound 3.16 µM, first compound 3 µM): 91.2% | viability, T/C (second compound 10 µM, first compound 0.00949 µM): 48.8% | viability, T/C (second compound 10 µM, first compound 0.03 µM): 46.5% | viability, T/C (second compound 10 µM, first compound 0.0949 µM): 45.2% | viability, T/C (second compound 10 µM, first compound 0.3 µM): 38.3% | viability, T/C (second compound 10 µM, first compound 0.949 µM): 27.5% | viability, T/C (second compound 10 µM, first compound 3 µM): 6.84%

Nc1ncn(C2CC(O)C(CO)O2)c(=O)n1 (stereo not given) + Cc1ccccc1N=Nc1ccc(NC(=O)c2ccnn2C)c(C)c1
IC50 (second compound 0.1 µM): > 1000 nM | IC50 (second compound 0.316 µM): > 1000 nM | IC50 (second compound 1 µM): > 1000 nM | IC50 (second compound 3.16 µM): > 1000 nM | IC50 (second compound 10 µM): > 1000 nM | viability, T/C (second compound 0.1 µM, first compound 0.00316 µM): 81.5% | viability, T/C (second compound 0.1 µM, first compound 0.01 µM): 86.8% | viability, T/C (second compound 0.1 µM, first compound 0.0316 µM): 64.3% | viability, T/C (second compound 0.1 µM, first compound 0.1 µM): 60.1% | viability, T/C (second compound 0.1 µM, first compound 0.316 µM): 63% | viability, T/C (second compound 0.1 µM, first compound 1 µM): 49.4% | viability, T/C (second compound 0.316 µM, first compound 0.00316 µM): 82.2% | viability, T/C (second compound 0.316 µM, first compound 0.01 µM): 66.9% | viability, T/C (second compound 0.316 µM, first compound 0.0316 µM): 69% | viability, T/C (second compound 0.316 µM, first compound 0.1 µM): 76.1% | viability, T/C (second compound 0.316 µM, first compound 0.316 µM): 72% | viability, T/C (second compound 0.316 µM, first compound 1 µM): 59.6% | viability, T/C (second compound 1 µM, first compound 0.00316 µM): 79.8% | viability, T/C (second compound 1 µM, first compound 0.01 µM): 71.3% | viability, T/C (second compound 1 µM, first compound 0.0316 µM): 72.7% | viability, T/C (second compound 1 µM, first compound 0.1 µM): 62.9% | viability, T/C (second compound 1 µM, first compound 0.316 µM): 75.4% | viability, T/C (second compound 1 µM, first compound 1 µM): 60.2% | viability, T/C (second compound 3.16 µM, first compound 0.00316 µM): 72.7% | viability, T/C (second compound 3.16 µM, first compound 0.01 µM): 83.2% | viability, T/C (second compound 3.16 µM, first compound 0.0316 µM): 79.9% | viability, T/C (second compound 3.16 µM, first compound 0.1 µM): 63.7% | viability, T/C (second compound 3.16 µM, first compound 0.316 µM): 64.1% | viability, T/C (second compound 3.16 µM, first compound 1 µM): 59% | viability, T/C (second compound 10 µM, first compound 0.00316 µM): 76.1% | viability, T/C (second compound 10 µM, first compound 0.01 µM): 65.5% | viability, T/C (second compound 10 µM, first compound 0.0316 µM): 66.1% | viability, T/C (second compound 10 µM, first compound 0.1 µM): 71.5% | viability, T/C (second compound 10 µM, first compound 0.316 µM): 65% | viability, T/C (second compound 10 µM, first compound 1 µM): 69.9%
